Experimental data published in patent publication US20250320261A1, “ANTIBACTERIAL PEPTIDE” (priority 2021, published 2025).
Read-outs that look alike come from different tables or passages of the source. Peptide text beside a SMILES is read from it. * marks the point of attachment. Heptanoyl = CCCCCCC(=O)*; Octanoyl = CCCCCCCC(=O)*; Hexanoyl = CCCCCC(=O)*; Pentanoyl = CCCCC(=O)*

Assays:
E. coli = test: Checkerboard analysis of peptide-antibiotic combinations; format: cell-based, Escherichia coli; settings: combined with different antibiotics
Experimental: (§1) The broth microdilution method was used to determine minimal inhibitory concentration (MIC) and minimal bactericidal concentration (MBC). Two-fold serial dilutions of the peptides were used, and the final concentrations ranged from 0.19-100 μM. The effect of peptide-antibiotic combinations was investigated by performing a checkerboard analysis. […] The fractional inhibitory concentration (FIC) and fractional bactericidal concentration (FBC) were calculated by the equation (MIC or MBC of peptide in combination/MIC or MBC of peptide […] alone)+(MIC or MBC of antibiotic in combination/MIC or MBC of antibiotic alone). Synergy was defined as FIC/FBC≤0.5, additive when 0.5<FIC/FBC≤1, indifferent when 1<FIC/FBC<2 and antagonistic when FIC/FBC≥2. All experiments were repeated at least three times.

S. aureus = test: as above; format: cell-based, Staphylococcus aureus; settings: combined with different antibiotics
Experimental: as §1

[1] = system: HaCaT keratinocytes infected with S. aureus; test: LDH cytotoxicity and cytokine secretion of S. aureus-infected HaCaT keratinocytes; format: cell-based, human; settings: 24 h, vs positive control
Experimental: After 24 hours of exposure to Staphylococcus aureus (MOI=0.1), and three administrations of L-6-C5-N (2.5, 5, 10, 20 and 40 μM) at 1, 5 and 9 hours post infection. (A) Cytotoxicity, LDH levels normalized against negative control. (B) Interleukin-6. (C) Tumor Necrosis Factor-α. (D) CXC motif ligand 8 levels. (−) indicates negative control (uninfected/unstimulated cells), (+) indicates positive control (S. aureus-infected cells). Statistical analysis was done by ANOVA with Tukey's post hoc test. P-values are indicated by *=[…], ***=0.001.
It was evaluated whether the peptide SEQ ID NO:3 having L-amino acids and an acetylation with five carbon atoms at the N-terminal portion (L-6-C5-N) could effectively reduce an inflammatory response to a bacterial infection to HaCaT keratinocytes. After 24 hours of exposure to Staphylococcus aureus (MOI=0.1), and three administrations of L-6-C5-N SEQ ID NO:3 in different concentrations (2.5, 5, 10, 20 and 40 μM) at 1, 5 and 9 hours post infection, a LDH cytotoxicity assay was performed and IL-6, TNF-α and CXCL-8 concentrations were measured. The symbol (−) indicates negative control (uninfected/unstimulated cells), (+) indicates positive control (S. aureus-infected cells).

[2] = system: S. aureus (ATCC 29213, MSSA); format: cell-based, Staphylococcus aureus; settings: for antimicrobial activity against S. aureus (in words): compared with peptide #6 or the parent lipopeptide
Experimental: (§2) S. aureus (ATCC 29213, MSSA, ATCC, Manassas, VA) and E. coli (K-12 MG1655) were streaked on Luria-Bertani (LB) agar plates and incubated at 37° C. overnight. Single colonies were inoculated into 5 ml of LB broth and incubated on a shaker (400 rpm) at 37° C. overnight. The bacterial concentrations were determined by viable count and were adjusted to correlate with approximately 10^9 CFU/ml.
as §1

E. coli (K-12 MG1655) = test: Broth microdilution MIC/MBC; format: cell-based, Escherichia coli; settings: for antimicrobial activity against E. coli (in words): compared with peptide #6 or the parent lipopeptide
Experimental: as §2, §1

human erythrocytes = format: cell-based; settings: red cells of human, 1 h, 100 μM
Experimental: FIG. 4. Hemolytic activity of SEQ ID NO 1 and SEQ ID NO 3. The hemolytic activity was determined on human erythrocytes (15% suspended in PBS) after exposure to A) SEQ ID NO: 3 with increasing length of fatty acid chains and full length PLNC8 β, B) L-enantiomers of SEQ ID NO: 3 with a fatty acid chain length of 5, 6, and 7 carbon (L-6-C5-N; L-6-C6-N; L-6-C7-N), and L-enantiomers of SEQ ID NO 1 with a fatty acid chain length of 5, 6, and 7 carbon (L-6-C5-N-Leu; L-6-C6-N-Leu; L-6-C7-N-Leu), C) D-enantiomers of SEQ ID NO: 3 with a fatty acid chain length of 5, 6, and 7 carbon (D-6-C5-N; D-6-C6-N; D-6-C7-N), and D-enantiomers of SEQ ID NO: 1 with a fatty acid chain length of 5, 6, and 7 carbon (D-6-C5-N-Leu; D-6-C6-N-Leu; D-6-C7-N-Leu). Erythrocytes were exposed to the peptides using the indicated concentrations for 1 h. […]
The hemolytic activity of the peptides was investigated by collecting blood from healthy volunteers in heparinized vacutainers. […] The plates were incubated for 1 h at 37° C. followed by centrifugation for 5 min at 900×g and absorbance measurement of the supernatants at 540 nm. Hemolytic activity (%) was calculated by subtracting the negative control from all values and normalization against the positive control (0.5% Triton X-100), that was set to 100%. […]

## 6-C2-N: peptide #6 (SEQ ID NO: 3) acetylated with two carbon atoms at the N-terminal (Ac-LGIKILWSAYKHRKTI-NH2) [Peptide 6-C2-N]
E. coli
  interaction with antibiotics (FIC/FBC) against E. coli: additive or synergistic
S. aureus
  interaction with antibiotics (FIC/FBC) against S. aureus: additive or synergistic

## 6-C5-N: SEQ ID NO:3 having L-amino acids and an acetylation with five carbon atoms at the N-terminal portion (Pentanoyl-LGIKILWSAYKHRKTI-NH2) [Peptide 6-C5-N]
E. coli
  interaction with antibiotics (FIC/FBC) against E. coli: additive or synergistic
[1]; MOI=0.1, 2.5-40 μM at 1, 5 and 9 h post infection
  IL-6 secretion, infected HaCaT: significantly reduced
[1]; MOI=0.1, 2.5-40 μM given at 1, 5 and 9 h post infection
  cell lysis (LDH) of S. aureus-infected HaCaT keratinocytes: significantly reduced
[2]
  antimicrobial activity against S. aureus (in words): maximum
S. aureus
  interaction with antibiotics (FIC/FBC) against S. aureus: additive or synergistic
E. coli (K-12 MG1655)
  antimicrobial activity against E. coli (in words): maximum

## 6-C6-N: L-enantiomer of SEQ ID NO: 3 with a fatty acid chain length of 6 carbon (Hexanoyl-LGIKILWSAYKHRKTI-NH2; also: C6 fatty acid chain, site not given here) [Peptide 6-C6-N]
[2]
  antimicrobial activity against S. aureus (in words): maximum
E. coli (K-12 MG1655)
  antimicrobial activity against E. coli (in words): maximum

## CCCCCCC(=O)N[C@@H](CC(C)C)C(=O)NCC(=O)N[C@H](C(=O)N[C@@H](CCCCN)C(=O)N[C@H](C(=O)N[C@@H](CC(C)C)C(=O)N[C@@H](Cc1c[nH]c2ccccc12)C(=O)N[C@@H](CO)C(=O)N[C@@H](C)C(=O)N[C@@H](Cc1ccc(O)cc1)C(=O)N[C@@H](CCCCN)C(=O)N[C@@H](Cc1c[nH]cn1)C(=O)N[C@@H](CCCNC(=N)N)C(=O)N[C@@H](CCCCN)C(=O)N[C@H](C(=O)N[C@H](C(N)=O)[C@@H](C)CC)[C@@H](C)O)[C@@H](C)CC)[C@@H](C)CC [Peptide 6-C7-N] (Heptanoyl-LGIKILWSAYKHRKTI-NH2)
Human erythrocytes
  hemolytic activity: around 10%

## CCCCCCCC(=O)N[C@@H](CC(C)C)C(=O)NCC(=O)N[C@H](C(=O)N[C@@H](CCCCN)C(=O)N[C@H](C(=O)N[C@@H](CC(C)C)C(=O)N[C@@H](Cc1c[nH]c2ccccc12)C(=O)N[C@@H](CO)C(=O)N[C@@H](C)C(=O)N[C@@H](Cc1ccc(O)cc1)C(=O)N[C@@H](CCCCN)C(=O)N[C@@H](Cc1c[nH]cn1)C(=O)N[C@@H](CCCNC(=N)N)C(=O)N[C@@H](CCCCN)C(=O)N[C@H](C(=O)N[C@H](C(N)=O)[C@@H](C)CC)[C@@H](C)O)[C@@H](C)CC)[C@@H](C)CC [Peptide 6-C8-N] (Octanoyl-LGIKILWSAYKHRKTI-NH2)
[2]
  antimicrobial activity against S. aureus (in words): did not affect the antimicrobial activity
E. coli (K-12 MG1655); broth microdilution
  MBC E. coli: 12.5 µM
  MIC E. coli: 12.5 µM

## Ac-ILWSAYKHR-NH2 [Peptide S2]
E. coli (K-12 MG1655); broth microdilution
  MBC E. coli: >100 µM
  MIC E. coli: >100 µM

## Ac-KILWSAYKHR-NH2 [Peptide S1]
E. coli (K-12 MG1655); broth microdilution
  MBC E. coli: >100 µM
  MIC E. coli: >100 µM

## Ac-LGIKILRSARKFGKVIEKSF-NH2 [Peptide 15]
[2]; ATCC 29213, 20 h
  MBC S. aureus: >100 µM
  MIC S. aureus: >100 µM
E. coli (K-12 MG1655); broth microdilution
  MBC E. coli: >100 µM
  MIC E. coli: >100 µM

## Ac-LGIKILWSARKFGKVIEKSF-NH2 [Peptide 16]
[2]; ATCC 29213, 20 h
  MBC S. aureus: >100 µM
  MIC S. aureus: >100 µM
E. coli (K-12 MG1655); broth microdilution
  MBC E. coli: >100 µM
  MIC E. coli: >100 µM

## Ac-LGIKILWSAYKHRKTI-NH2 [Peptide 6]
[2]; broth microdilution
  MBC S. aureus: 100 µM
  MIC S. aureus: 100 µM
E. coli (K-12 MG1655); broth microdilution
  MBC E. coli: 50 µM
  MIC E. coli: 50 µM
E. coli (K-12 MG1655)
  antimicrobial activity against E. coli (in words): comparable to the activity of LL-37

## Ac-LGQKILRSARKFGKDIEKSF-NH2 [Peptide 14]
[2]; ATCC 29213, 20 h
  MBC S. aureus: >100 µM
  MIC S. aureus: >100 µM
E. coli (K-12 MG1655); broth microdilution
  MBC E. coli: >100 µM
  MIC E. coli: >100 µM

## Ac-LGQKILRSARKFGKTIEKSF-NH2 [Peptide 13]
[2]; ATCC 29213, 20 h
  MBC S. aureus: >100 µM
  MIC S. aureus: >100 µM
E. coli (K-12 MG1655); broth microdilution
  MBC E. coli: >100 µM
  MIC E. coli: >100 µM

## Ac-LLGIKILWKARKFGKVIEKSF-NH2 [Peptide 18]
[2]; ATCC 29213, 20 h
  MBC S. aureus: >100 µM
  MIC S. aureus: >100 µM
E. coli (K-12 MG1655); broth microdilution
  MBC E. coli: >100 µM
  MIC E. coli: 100 µM

## Ac-LLGIKILWSARKFGKVIEKSF-NH2 [Peptide 17]
[2]; ATCC 29213, 20 h
  MBC S. aureus: >100 µM
  MIC S. aureus: >100 µM
E. coli (K-12 MG1655); broth microdilution
  MBC E. coli: >100 µM
  MIC E. coli: >100 µM

## Ac-LWSAYKHR-NH2 [Peptide S3]
E. coli (K-12 MG1655); broth microdilution
  MBC E. coli: >100 µM
  MIC E. coli: >100 µM

## Ac-SVPTSVYTLGIKILWSAYKHRKTIEKSFNKGFYH-NH2 (N-terminus and C-terminus assumed) [PLNC8 β, reference compound]
[2]; ATCC 29213
  MBC S. aureus: >100 µM
  MIC S. aureus: >100 µM
E. coli (K-12 MG1655); K-12
  MBC E. coli: >100 µM
  MIC E. coli: >100 µM
E. coli (K-12 MG1655)
  antimicrobial activity against E. coli (in words): no activity

## Ac-TLGIKILWSAYKHRKT-NH2 [Peptide 5]
[2]; ATCC 29213, 20 h
  MBC S. aureus: >100 µM
  MIC S. aureus: >100 µM
E. coli (K-12 MG1655); broth microdilution
  MBC E. coli: >100 µM
  MIC E. coli: >100 µM

## Ac-WSAYK-NH2 [Peptide S6, WSAYK]
E. coli (K-12 MG1655); broth microdilution
  MBC E. coli: >100 µM
  MIC E. coli: >100 µM

## Ac-WSAYKH-NH2 [Peptide S5, WSAYKH]
E. coli (K-12 MG1655); broth microdilution
  MBC E. coli: >100 µM
  MIC E. coli: >100 µM

## Ac-WSAYKHR-NH2 [Peptide S4, WSAYKHR]
E. coli (K-12 MG1655); broth microdilution
  MBC E. coli: >100 µM
  MIC E. coli: >100 µM

## Ac-YTLGIKILWSAYKHRK-NH2 [Peptide 4]
[2]; ATCC 29213, 20 h
  MBC S. aureus: >100 µM
  MIC S. aureus: >100 µM
E. coli (K-12 MG1655); broth microdilution
  MBC E. coli: >100 µM
  MIC E. coli: >100 µM
